Values after ≈ are worked out from the molar mass of the structure shown.

Data set [1] in a line: Toxicity index, ratio of ED50 for human KB cells to ED50 for […] Plasmodium falciparum 3D7. Format: cell-based. The settings on record: KB cells versus Plasmodium falciparum 3D7, read-out: Ratio ED50.
A further data set relates to Plasmodium falciparum. Kind of data set: Antimalarial activity against […] Plasmodium falciparum 3D7. The conditions noted are these: for EC50: read-out: ED50 (the source's name). It counts as functional, organism-based.
A short description of data set [2]: Cytotoxicity against human KB cells. Format: cell-based. The settings on record: read-out: ED50 (the source's name).

As to `CNC[C@H](Cc1ccc2ccccc2c1)NC[C@@H](Cc1ccc2ccccc2c1)NCC1CCC(C)CC1` (stereo not given in full), the selectivity ratio in data set [1] worked out at 20.3. For the same compound, in the data set with Plasmodium falciparum, the EC50 was 0.1 µg/mL (≈ 0.197 µM). Besides, the CC50 in data set [2] was determined as 2.03 µg/mL (≈ 4 µM).

With `CCOc1ccc(CCN[C@H](CN[C@@H](CNC)CC2CCCCC2)Cc2ccc3ccccc3c2)cc1`, in data set [1], the selectivity ratio is 19.3. In addition, in the data set with Plasmodium falciparum, the EC50 stood at 0.16 µg/mL (≈ 0.319 µM). Moreover, in data set [2], the CC50 turned out to be 3.1 µg/mL (≈ 6.18 µM).

For orientation: IC50 means the concentration needed to halve the response being measured. A high value points to weaker potency in that assay. In the data set with Plasmodium falciparum, `C[C@H]1[C@H](OC(=O)CCC(=O)O)O[C@@H]2O[C@@]3(C)CC[C@H]4[C@H](C)CC[C@@H]1[C@@]24OO3` [ARTESUNATE] gave an IC50 of 0.002 µg/mL (≈ 0.0052 µM).

Turning to `CNC[C@H](Cc1ccc2ccccc2c1)NC[C@@H](Cc1ccc2ccccc2c1)NCCc1ccc(Cl)c(Cl)c1`, the selectivity ratio in data set [1] came out at 23. Moreover, in the data set with Plasmodium falciparum, the EC50 came out at 0.24 µg/mL (≈ 0.421 µM). Also, the CC50 in data set [2] came out at 5.53 µg/mL (≈ 9.69 µM).

Turning to `CCOc1ccc(CCN[C@H](CN[C@H](CNC)Cc2ccc3ccccc3c2)Cc2ccc3ccccc3c2)cc1`, the selectivity ratio in data set [1] came out at 26. The EC50 in the data set on Plasmodium falciparum was found to be 0.12 µg/mL (≈ 0.22 µM). Besides, the CC50 in data set [2] is 3.23 µg/mL (≈ 5.92 µM).

Turning to `CNC[C@@H](CC1CCCCC1)NC[C@@H](Cc1ccc2ccccc2c1)NCC(C)c1ccc(CC(C)C)cc1` (stereo not given in full), in data set [1], the selectivity ratio worked out at 24.1. Further, in the data set with Plasmodium falciparum, the EC50 was determined as 0.29 µg/mL (≈ 0.549 µM). Also, the CC50 in data set [2] was 7.01 µg/mL (≈ 13.3 µM).

Take `CNC[C@@H](CC1CCCCC1)NC[C@H](Cc1ccc2ccccc2c1)NCC1CCC(C)CC1` (stereo not given in full): the selectivity ratio in data set [1] came out at 69. The EC50 with Plasmodium falciparum came out at 0.1 µg/mL (≈ 0.216 µM). Besides, the CC50 in data set [2] was found to be 6.9 µg/mL (≈ 14.9 µM).

Consider `CNC[C@@H](CC1CCCCC1)NC[C@H](Cc1ccc2ccccc2c1)NCC1(c2ccccc2)CC1`, for which, in data set [1], the selectivity ratio worked out at 15.7. The EC50 with Plasmodium falciparum amounted to 0.11 µg/mL (≈ 0.227 µM). The CC50 in data set [2] amounted to 1.71 µg/mL (≈ 3.53 µM).

For `CNC[C@@H](Cc1ccccc1)NC[C@@H](Cc1ccc2ccccc2c1)NCC1(c2ccccc2)CC1`, the selectivity ratio in data set [1] stood at 5.46. Also, the EC50 with Plasmodium falciparum is 0.28 µg/mL (≈ 0.586 µM). The CC50 in data set [2] stood at 1.53 µg/mL (≈ 3.2 µM).

`CNC[C@H](Cc1ccc2ccccc2c1)NC[C@@H](Cc1ccc2ccccc2c1)NCC1(c2ccccc2)CC1`: in data set [1], the selectivity ratio was determined as 32. In the data set on Plasmodium falciparum, the EC50 was 0.05 µg/mL (≈ 0.0947 µM). In data set [2], the CC50 was 1.6 µg/mL (≈ 3.03 µM).

Consider `CNC[C@H](Cc1ccc2ccccc2c1)NC[C@H](Cc1ccc2ccccc2c1)NCC1(c2ccccc2)CC1`, for which the selectivity ratio in data set [1] is 43.5. Also, the EC50 in the data set with Plasmodium falciparum worked out at 0.05 µg/mL (≈ 0.0947 µM). Besides, the CC50 in data set [2] stood at 2.18 µg/mL (≈ 4.13 µM).

Regarding `CNC[C@@H](CC1CCCCC1)NC[C@@H](Cc1ccc2ccccc2c1)NCCc1ccc(Cl)c(Cl)c1`, the selectivity ratio in data set [1] came out at 19.2. Besides, in the data set on Plasmodium falciparum, the EC50 was 0.22 µg/mL (≈ 0.418 µM). In addition, the CC50 in data set [2] stood at 4.23 µg/mL (≈ 8.03 µM).

Consider `CNC[C@@H](Cc1ccc2ccccc2c1)NC[C@H](Cc1ccc2ccccc2c1)NCC1(c2ccccc2)CC1`, for which the selectivity ratio in data set [1] was determined as 4.93. Further, the EC50 in the data set with Plasmodium falciparum is 0.29 µg/mL (≈ 0.549 µM). The CC50 in data set [2] was determined as 1.43 µg/mL (≈ 2.71 µM).

With `CNC[C@H](Cc1ccc2ccccc2c1)NC[C@@H](Cc1ccc2ccccc2c1)NCCC1CCCCC1`, in data set [1], the selectivity ratio was 17.7. In addition, the EC50 in the data set on Plasmodium falciparum was found to be 0.09 µg/mL (≈ 0.177 µM). Further, the CC50 in data set [2] was 1.6 µg/mL (≈ 3.15 µM).

For `CNC[C@H](Cc1ccc2ccccc2c1)NC[C@H](Cc1ccc2ccccc2c1)NCC(C)c1ccc(CC(C)C)cc1` (stereo not given in full), the selectivity ratio in data set [1] turned out to be 11.6. Further, in the data set on Plasmodium falciparum, the EC50 was 0.18 µg/mL (≈ 0.315 µM). Also, in data set [2], the CC50 turned out to be 2.09 µg/mL (≈ 3.65 µM).

Turning to `CNC[C@@H](CC1CCCCC1)NC[C@@H](Cc1ccc2ccccc2c1)NCCC1CCCCC1`, in data set [1], the selectivity ratio was 11.3. Moreover, the EC50 in the data set on Plasmodium falciparum stood at 0.14 µg/mL (≈ 0.302 µM). For the same compound, in data set [2], the CC50 was 1.59 µg/mL (≈ 3.43 µM).

In the case of `CNC[C@@H](Cc1ccccc1)NC[C@H](Cc1ccc2ccccc2c1)NCC1(c2ccccc2)CC1`, the selectivity ratio in data set [1] worked out at 2.36. Moreover, the EC50 in the data set with Plasmodium falciparum came to 0.22 µg/mL (≈ 0.461 µM). Also, the CC50 in data set [2] is 0.52 µg/mL (≈ 1.09 µM).

On to `CNC[C@H](Cc1ccc2ccccc2c1)NC[C@H](Cc1ccc2ccccc2c1)NCCC1CCCCC1`, for which the selectivity ratio in data set [1] was 88.5. The EC50 in the data set on Plasmodium falciparum came to 0.02 µg/mL (≈ 0.0394 µM). The CC50 in data set [2] was determined as 1.77 µg/mL (≈ 3.49 µM).

As for `CNC[C@@H](Cc1ccccc1)NC[C@@H](Cc1ccc2ccccc2c1)NCC1CCC(C)CC1` (stereo not given in full), in data set [1], the selectivity ratio stood at 8.23. The EC50 with Plasmodium falciparum amounted to 0.22 µg/mL (≈ 0.481 µM). The CC50 in data set [2] was 1.73 µg/mL (≈ 3.78 µM).

As for `CNC[C@H](Cc1ccc2ccccc2c1)NC[C@@H](Cc1ccc2ccccc2c1)NCC(C)c1ccc(CC(C)C)cc1` (stereo not given in full), the selectivity ratio in data set [1] worked out at 13. For the same compound, in the data set with Plasmodium falciparum, the EC50 came out at 0.13 µg/mL (≈ 0.227 µM). Moreover, the CC50 in data set [2] came to 1.71 µg/mL (≈ 2.99 µM).

`CNC[C@@H](CC1CCCCC1)NC[C@H](Cc1ccc2ccccc2c1)NCCC1CCCCC1`: the EC50 in the data set on Plasmodium falciparum turned out to be 0.11 µg/mL (≈ 0.237 µM). In addition, the CC50 in data set [2] turned out to be 0.11 µg/mL (≈ 0.237 µM).

The record behind these values is ChEMBL document CHEMBL2406915, “Antimalarial and cytotoxic activities of chiral triamines” (Bioorg Med Chem Lett, 2013).
